From US20090054329A1, “COMPOSITION WITH DOCOSAPENTAENOIC ACID” (N.V. Nutricia, priority 2005, published 2009)

Columns and labels:
[1] = system: intestinal epithelial cell lines T84; assay: Transepithelial resistance (TER) of T84 monolayers; assay type: cell-based, human; conditions: for Resistance (TER) Disrupted by IL-4 / Resistance (TER) Basal: T84 monolayers, fatty acid 100 μM, 72 hr incubation; for Resistance (TER) Disrupted by IL-4: IL-4 mediated barrier disruption; for Effect on epithelial resistance (in words): both under basal and barrier disruptive conditions, 100 μM, 72 hr; for Effect on barrier integrity and epithelial paracellular permeability (in words): summary statement
Experimental: Monolayers (MC) of intestinal epithelial cell lines T84 (American Type Culture Collection (ATTC), Manassas, USA) were cultured on transwell filters (Corning, Costar BV, The Netherlands) allowing both mucosal and serosal sampling and stimulation of human intestinal epithelial cells. […] Louis, USA). The latter procedure was chosen to mimic the in vivo administration route of the dietary compounds. […] Experiments were performed to evaluate basal barrier integrity and cytokine (IL-4) induced barrier disruption. The epithelial barrier function was determined by measuring the transepithelial resistance (TER, Ω.cm^2) by epithelial volt-ohm meter (EVOM; World Precision Instruments, Germany) and permeability for 4 kD FITC dextran (paracellular permeability marker, Sigma, USA). Epithelial permeability for 4 kDa FITC-dextran was determined as follows. Prior to dextran fluxes the medium was refreshed with culture medium without phenol red for one hour followed by addition of 5 μl (stock 100 mg/ml) 4 kDa FITC-dextran to the luminal compartment. After 60 min of incubation 100 μl sample was collected from the serosal compartment and the fluorescent signal measured at excitation wavelength 485 nm and emission 520 nm (FLUOstar Galaxy®, BMG Labtechnologies, USA). FITC-dextran fluxes were calculated as pmol FITC-dextran/cm^2/h. Statistical analyses were performed using the ANOVA (SPSS version 10).

[2] = system: intestinal epithelial cell lines T84; assay: Permeability for 4 kD FITC dextran (flux) across T84 monolayers; assay type: cell-based, human; conditions: for Permeability (Flux) Increased by IL-4: T84 monolayers, fatty acid 100 μM, 72 hr incubation, IL-4, 4 kDa FITC-dextran; for Effect on increase of permeability caused by cytokines (in words): incubations with cytokines (IL-4), 100 μM, 72 hr
Experimental: Monolayers (MC) of intestinal epithelial cell lines T84 (American Type Culture Collection (ATTC), Manassas, USA) were cultured on transwell filters (Corning, Costar BV, The Netherlands) allowing both mucosal and serosal sampling and stimulation of human intestinal epithelial cells. Two weeks post confluence the monolayers were incubated in the luminal compartment with polyunsaturated fatty acids DPA (7,10,13,16,19-docosapentaenoic acid, 22:5 n3), AA (arachidonic acid; 5,8,11,14-eicosatetraenoic acid), DHA (cis-4,7,10,13,16,19 docosahexaenoic acid), EPA (eicosapentaenoic acid) or control palmitic (C 16:0) acid (Palm) (Sigma, St. Louis, USA). The latter procedure was chosen to mimic the in vivo administration route of the dietary compounds. Cells were incubated with DPA, AA, DHA, EPA, or palmitic acid for 0, 24, 48 and 72 h at 100 μM.
Experiments were performed to evaluate basal barrier integrity and cytokine (IL-4) induced barrier disruption. The epithelial barrier function was determined by measuring the transepithelial resistance (TER, Ω.cm^2) by epithelial volt-ohm meter (EVOM; World Precision Instruments, Germany) and permeability for 4 kD FITC dextran (paracellular permeability marker, Sigma, USA). Epithelial permeability for 4 kDa FITC-dextran was determined as follows. Prior to dextran fluxes the medium was refreshed with culture medium without phenol red for one hour followed by addition of 5 μl (stock 100 mg/ml) 4 kDa FITC-dextran to the luminal compartment. After 60 min of incubation 100 μl sample was collected from the serosal compartment and the fluorescent signal measured at excitation wavelength 485 nm and emission 520 nm (FLUOstar Galaxy®, BMG Labtechnologies, USA). FITC-dextran fluxes were calculated as pmol FITC-dextran/cm^2/h. Statistical analyses were performed using the ANOVA (SPSS version 10).

MUC-2 expression = conditions: MC T84 and CC T84; compared to propionate and butyrate
From the text: See also the examples in applicants' co-pending European application no. 04748674.1).

SMILES | Resistance (TER) Disrupted by IL-4 [1] | Resistance (TER) Basal [1] | Effect on epithelial resistance (in words) [1] | Effect on barrier integrity and epithelial paracellular permeability (in words) [1] | Permeability (Flux) Increased by IL-4 [2] | Effect on increase of permeability caused by cytokines (in words) [2] | Stimulation of MUC-2 expression (mucus production) (MUC-2 expression)
CCC=CCC=CCC=CCC=CCC=CCCCCCC(=O)O [DPA, 7,10,13,16,19-docosapentaenoic acid] | 368 ± 4 Ω.cm^2 | 605 ± 27 Ω.cm^2 | improve epithelial resistance | effectively improves barrier integrity and reduces epithelial paracellular permeability | 216 ± 123 pmol FITC-dextran/cm^2/h | effectively reduced | 
CCCCCC=CCC=CCC=CCC=CCCCC(=O)O [AA, 5,8,11,14-eicosatetraenoic acid] | 337 ± 13 Ω.cm^2 | 634 ± 29 Ω.cm^2 | improve epithelial resistance |  | 273 ± 76 pmol FITC-dextran/cm^2/h | effectively reduced | 
CC(=O)O [acetate] |  |  |  |  |  |  | more potent in stimulating MUC-2 expression
CCC=CCC=CCC=CCC=CCC=CC/C=C\CCC(=O)O [DHA, cis-4,7,10,13,16,19 docosahexaenoic acid] | 328 ± 7 Ω.cm^2 | 584 ± 50 Ω.cm^2 | improve epithelial resistance |  | 304 ± 75 pmol FITC-dextran/cm^2/h | effectively reduced | 
CCCCCCCCCCCCCCCC(=O)O [Palmitic acid, palmitic acid] | 272 ± 11 Ω.cm^2 | 496 ± 50 Ω.cm^2 | not effective |  | 646 ± 106 pmol FITC-dextran/cm^2/h | not | 
CC/C=C\C/C=C\C/C=C\C/C=C\C/C=C\CCCC(=O)O [EPA, eicosapentaenoic acid] | 375 ± 9 Ω.cm^2 | 584 ± 7 Ω.cm^2 |  |  | 236 ± 145 pmol FITC-dextran/cm^2/h |  | 
CCCCC/C=C\C/C=C\CCCCCCCC(=O)O [linoleic acid] |  |  |  | ineffective |  |  | 
